From ChEMBL document CHEMBL1629598, “Statistical model to evaluate in vivo activities of antimalarial drugs in a Plasmodium cynomolgi-macaque model for Plasmodium vivax malaria” (2009)
Calls of active or inactive are those of the source. The rule behind the calls is not given here.

Assays:
[1] = system: Plasmodium cynomolgi; experiment: Antimalarial activity against blood-stage of Plasmodium cynomolgi M infected in rhesus macaque assessed as complete cure at 40 mg/kg, po qd after 4 days; type: functional, organism-based; parameters: dose 40 mg/kg
[2] = system: Plasmodium cynomolgi; experiment: Antimalarial activity against blood-stage of Plasmodium cynomolgi M infected in rhesus macaque assessed as reduction of parasitemia at 40 mg/kg, po qd for 8 consecutive days (reference value: 4.7%); type: functional; parameters: scale not given: the % may be the effect or the level left
[3] = system: Plasmodium cynomolgi; experiment: Antimalarial activity against blood-stage of Plasmodium cynomolgi M infected in rhesus macaque assessed as reduction of peak parasitemia days at 40 mg/kg, po qd for 8 consecutive days; type: functional
[4] = system: Plasmodium cynomolgi; experiment: Antimalarial activity against blood-stage of Plasmodium cynomolgi M infected in rhesus macaque assessed as reduction of parasitemia days at 27 mg/kg, po qd after 4 to 5 days; type: functional, organism-based; parameters: dose 27 mg/kg
[5] = system: Plasmodium cynomolgi; experiment: Antimalarial activity against blood-stage of Plasmodium cynomolgi M infected in rhesus macaque assessed as reduction of peak parasitemia days at 9 mg/kg, po qd for 4 consecutive days; type: functional
[6] = system: Plasmodium cynomolgi; experiment: Antimalarial activity against blood-stage of Plasmodium cynomolgi M infected in rhesus macaque assessed as reduction of parasitemia days at 9 mg/kg, po qd after 4 to 5 days; type: functional, organism-based; parameters: dose 9 mg/kg
[7] = system: Plasmodium cynomolgi; experiment: Antimalarial activity against blood-stage of Plasmodium cynomolgi M infected in rhesus macaque assessed as reduction of peak parasitemia days at 27 mg/kg, po qd for 4 consecutive days; type: functional
[8] = system: Plasmodium cynomolgi; experiment: Antimalarial activity against blood-stage of Plasmodium cynomolgi M infected in rhesus macaque assessed as reduction of parasitemia days at 3 mg/kg, po qd after 4 to 5 days; type: functional, organism-based; parameters: dose 3 mg/kg
[9] = system: Plasmodium cynomolgi; experiment: Antimalarial activity against blood-stage of Plasmodium cynomolgi M infected in rhesus macaque assessed as reduction of parasitemia at 3 to 27 mg/kg, po qd for 8 consecutive days (reference value: 3%); type: functional; parameters: scale not given: the % may be the effect or the level left; conditions: dose mg/kg 3-27
[10] = system: Plasmodium cynomolgi; experiment: Antimalarial activity against blood-stage of Plasmodium cynomolgi M infected in rhesus macaque assessed as reduction of peak parasitemia days at 3 mg/kg, po qd for 4 consecutive days; type: functional
[11] = system: Plasmodium cynomolgi; experiment: Antimalarial activity against blood-stage of Plasmodium cynomolgi M infected in rhesus macaque assessed as reduction of peak parasitemia days at 3 to 27 mg/kg, po qd for 4 consecutive days; type: functional; conditions: dose mg/kg 3-27
[12] = system: Plasmodium cynomolgi; experiment: Antimalarial activity against blood-stage of Plasmodium cynomolgi M infected in rhesus macaque assessed as reduction of parasitemia administered intramuscularly twice daily for 8 consecutive days measured on day 28 (reference value: 6.1%); type: functional; parameters: scale not given: the % may be the effect or the level left
[13] = system: Plasmodium cynomolgi; experiment: Antimalarial activity against blood-stage of Plasmodium cynomolgi M infected in rhesus macaque assessed as reduction of peak parasitemia days administered intramuscularly twice daily measured after 2nd dose (reference value: 3.5%); type: functional
[14] = system: Plasmodium cynomolgi; experiment: Antimalarial activity against blood-stage of Plasmodium cynomolgi M infected in rhesus macaque assessed as reduction of peak parasitemia administered intramuscularly twice daily measured on day 3; type: functional, organism-based

With COCC/C(SC(=O)c1ccc(CN2CCOCC2)cc1)=C(\C)N(C=O)CCCCCCCCCCCCN(C=O)/C(C)=C(/CCOC)SC(=O)c1ccc(CN2CCOCC2)cc1.O=C(O)C(O)C(O)C(=O)O the Activity [1] was “Active”, the Activity [2] was 1.5% and the Time [3] was 1 days.
C/C(=C1\CCOC(=O)S1)N(C=O)CCCCCCCCCCCCN(C=O)/C(C)=C1/CCOC(=O)S1 was tested, and the Activity [4] was “Active”, the Time [5] was 1.7 days and the Activity [6] was “Active”. The Time [7] was 1.6 days, the Activity [8] was “Active” and the Activity [9] was 0.6%. It also gave a Time [10] of 2 days and a Time [11] of 1.9 days.
C[N+]1(CCCCCCCCCCCCCCCC[N+]2(C)CCCC2)CCCC1.[Br-].[Br-] was tested, and the Activity [12] was 0.5%, the Time [13] was 0.7 days and the Activity [14] was “Active”.
